Data taken from US20160058829A1, “ANTI-FIBROTIC PEPTIDES AND THEIR USE IN METHODS FOR TREATING DISEASES AND DISORDERS CHARACTERIZED BY FIBROSIS” (Thrasos Innovation, Inc., priority 2011, published 2016).
“Also recorded” adds a separate entry of the source. Positions of bridges follow the written chain, without caps; N, C: chain ends.

Legend:
[1] = test system: NP-1 cells; experiment: TGF-β-induced apoptosis in NP-1 cells (Annexin V); assay type: cell-based; details: TGF-β 3 ng/ml 24 h; BMP-7 1 μg/ml, THR-123 10 μM
Procedure: FIG. 48A-FIG. 48D THR-123 inhibits TGF-β-induced apoptosis in NP-1 cells. NP-1 cells are incubated with TGF-β (3 ng/ml) for 24 h in the presence of indicated molecules. Apoptosis was analyzed by Annexin V labeling (Roche). Representative merged picture (Green: Annexin V and bright field image) of cells treated with TGF-β only (FIG. 48A), TGF-β+BMP-7 (1 μg/ml) (FIG. 48B), TGF-β+THR-123 (10 μM) (FIG. 48C) and TGF-β+ctrl peptide (FIG. 48D).

[2] = test system: HK-2 cells; experiment: TNF-α-induced inflammatory cytokine production in HK-2 cells (ELISA); assay type: cell-based, human; details: HK-2 cells
Procedure: FIG. 37 provides a bar graph showing a comparison of the effects of THR-123 (or “THR-1405”) and the specific inhibitor SB 203580 on the level of TNF-α-induced IL-6 production, an inflammatory marker, in human renal tubule epithelial cells (HK-2).
FIG. 47A-FIG. 47C Anti-inflammatory activity of THR-123. PTEC-derived HK-2 (HK-2) cells were culture on 24-well plate (30,000 cells/well). Cells are exposed to K-SFM medium alone or TNF-α (5 ng/ml). Twenty hours after TNF-α incubation, cells are washed twice by pre-warmed culture media and subsequently cells are incubated with various concentration of THR-123 or BMP7 for 60 hours. At the end of incubation, culture medias are harvested and ELISA analysis are performed. FIG. 47A: IL-6, FIG. 47B: IL-8 and FIG. 47C: ICAM-1 results are shown. Analyze are performed in triplicates and data are shown as mean±s.e.m. in the graph.
Preliminary screening for optimization was based on anti-inflammatory efficacy in an in vitro cell-based assay using a human renal tubular epithelial cell line (HK-2). The assay tested the ability of compounds to reverse the increase in production of cytokine IL-6 that resulted from stimulation of the cells with tumor necrosis factor (TNF)-α. Sequence-activity analysis was carried out using the SVA program. After six optimization cycles, THR-123 (FIG. 2A) emerged as the lead compound, which was further evaluated in other relevant anti-fibrosis assays (vide infra).
Human proximal tubular epithelial cells-derived HK-2 cells were culture on 24-well plate (30,000 cells/well). Cells are exposed to K-SFM medium alone or […] (5 ng/ml). Twenty hours after TNF-α incubation, cells are washed twice by pre-warmed culture media and subsequently cells are incubated with various concentration of THR-123 or BMP7 for 60 hours. At the end of incubation, culture medias are harvested and ELISA analysis for IL-6, IL-8 and ICAM-1 are performed.

[3] = test system: NP-1 cells; experiment: TGF-β-induced EMT in NP-1 cells (inhibition and reversal); assay type: cell-based; details: added after EMT induction for additional 48 hrs; BMP 7 1 μg/ml, THR-123 10 μM
[4] = test system: p38 MAPK; experiment: p38 MAPK phosphorylation in HK-2 cells; assay type: cell-based, human
Excerpt: The significance of p38 MAPK is that this protein is implicated as a non-Smad-dependent pathway for TGF-β-dependent EMT. Other non-Smad-dependent pathways implicated in TGF-β-dependent EMT include RhoA, Ras, PI3 kinase, Notch, and Wnt signaling pathways.
It has been shown that regulation p38 MAPK activity by pro-inflammatory factors has implications in fibrosis.

[5] = test system: Streptozotocin-induced diabetic CD-1 mice; experiment: STZ-induced diabetic nephropathy study (THR-123 month 5-6, BMP-7 month 1-6); assay type: in vivo; details: for net increase in FSP1 (mesenchymal tissue) at six months versus normal animals: BMP7 five months, SEQ ID NO: 1 final month, untreated 27 and 29 times; for interstitial fibrosis (collagen accumulation, Masson's trichrome): THR-123 5 mg/kg/day oral; for increase in BUN level relative to normal animals: untreated 85% at 5 months, 94% at 6 months
Procedure: FIG. 17 depicts the STZ experimental protocol behind the study discussed in Example 2. […] Mice were given a single intraperitoneal injection of Streptozotocin (STZ) in sodium citrate buffer (pH 4.5) at a dose of 200 mg/kg. Blood glucose was measured by tail vein sampling using the glucose oxidase enzymatic test (Medisense glucometer, Abbott Laboratories, Bedford, Mass.). Diabetic nephropathy was evaluated in groups of mice killed at the end of 5 or 6 months (vehicle control groups) or 6 months (THR123 or BMP-7 group) after STZ injection. A group of STZ injected mice received oral administration of Thrasos compound daily at a dose of 5 mg/kg body weight for a month, from month 5 to month 6 after STZ injection. BMP-7 was administered intraperitoneally at a dose of 300 μg/kg body weight from month 1 to month 6.
Analysis of fibrosis in the H&E and Masson's trichrome stain in FIG. 18 through 22 from the mouse STZ study outlined in FIG. 17. Using the same image color analysis method used above to quantitate E-cadherin fluorescence for the in vitro EMT experiments, the images were quantitated, and the results shown in FIG. 23.
Eight weeks old male CD-1 mice are used all the diabetic experiment. Mice are performed single intraperitoneal (i.p.) injection of streptozotocin (STZ: 200 mg/Kg). Induction of diabetes is defined as blood glucose level >16 mM by 2 weeks after STZ injection. One month after induction of diabetes, mice were separated into three groups (BMP7, vehicle and non-treatment) and BMP7 (i.p. 300 μg/Kg/every other day) or vehicle injection was initiated. Five months after induction of diabetes, THR-123 (p.o. 5 mg/Kg/day) administration is initiated in diabetic mice. Mice are sacrificed at 5 (before the treatment) or 6 months after induction of diabetes.

[6] = THR-123 month 5-6, BMP-7 month 1-6
[7] = THR-123 month 5-6, BMP-7 month 1-6, listed as THR-123

## (H)-CYFDDSSNVLCKKYRS-(OH) (H-CYFDDSSNVLCKKYRS-OH; disulfide 1-11; SMILES CC(C)C[C@@H]1NC(=O)[C@H](C(C)C)NC(=O)[C@H](CC(N)=O)NC(=O)[C@H](CO)NC(=O)[C@H](CO)NC(=O)[C@H](CC(=O)O)NC(=O)[C@H](CC(=O)O)NC(=O)[C@H](Cc2ccccc2)NC(=O)[C@H](Cc2ccc(O)cc2)NC(=O)[C@@H](N)CSSC[C@@H](C(=O)N[C@@H](CCCCN)C(=O)N[C@@H](CCCCN)C(=O)N[C@@H](Cc2ccc(O)cc2)C(=O)N[C@@H](CCCNC(=N)N)C(=O)N[C@@H](CO)C(=O)O)NC1=O) [SEQ ID NO: 1]
[1]
  TGF-β-induced apoptosis: decreased apoptosis
[2]
  TNF-α-induced ICAM-1 production: inhibits
  TNF-α-induced IL-8 production: inhibits
[2]; listed as THR-123
  TNF-α-induced IL-6 production: inhibited TNF-α induced IL-6 production in dose dependent manner; also recorded: significantly reduced
[3]
  reversal of EMT morphology: reversal of the morphology
[4]; HK-2 cells
  TNF alpha induced p38 phosphorylation: effectively inhibited
  basal p38 phosphorylation: effectively inhibited
[4]; THR-123 1 uM versus specific inhibitor 10 uM
  potency on p38 phosphorylation relative to SB 203580: as potent as 10 uM of the specific inhibitor
[5]
  net increase in FSP1 (mesenchymal tissue) at six months versus normal animals: 2 times
  increase in BUN level relative to normal animals: 17%
[5]; month 5 to 6, listed as THR123, 5 mg/kg/day
  interstitial fibrosis (collagen accumulation, Masson's trichrome): reduced renal fibrosis
[5]; month 5 to 6, listed as THR-123, 5 mg/kg/day
  interstitial fibrosis (collagen accumulation, Masson's trichrome): lower than it was at 5 months; also recorded: markedly reduced
[5]; [6]
  glomerular surface area: little effect
[5]; THR-123 month 5-6, BMP-7 month 1-6, listed as THR123
  relative interstitial volume: decreased interstitial volume
[5]; [7]
  BUN levels / renal function: reversed renal dysfunction; also recorded: dropped to those of control animals
  damaged tubules / tubular atrophy: inhibited tubular atrophy and interstitial volume increase; also recorded: reversed tubular atrophy and interstitial volume expansion; also recorded: markedly reduced
  mesangial matrix expansion: inhibited mesangium expansion; also recorded: reversed mesangial matrix expansion; also recorded: significantly reduced
  relative interstitial volume: markedly reduced
[5]; mouse, in vivo
  EMT program (FSP1 and E-cadherin double positive tubules): inhibited EMT program
  macrophage infiltration (Mac-1): significantly reduced the infiltration by macrophages
  phospho-Smad1/5 accumulation in kidney: increased accumulation of phospho-Smad1/5
[5]; one month treatment, month 5 to 6
  FSP-1 marker concentration relative to levels at 5 and 6 months: less than 1/10
[5]; untreated 64% at 5 months, 104% at 6 months
  increase in mesangial matrix at 6 months: 37%
[5]; listed as THR-123
  increase in BUN level relative to normal animals: 12%

B1: BMP-7: bone morphogenetic protein-7; recombinant human BMP7, positive control (protein)
chain: STGSKQRSQNRSKTPKNQEALRMANVAENSSSDQRQACKKHELYVSFRDLGWQDWIIAPEGYAAYYCEGECAFPLNSYMNATNHAIVQTLVHFINPETVPKPCCAPTQLNAISVLYFDDSSNVILKKYRNMVVRACGCH
[1]
  TGF-β-induced apoptosis: decreased apoptosis
[2]
  TNF-α-induced IL-6 production: inhibited TNF-α induced IL-6 production in dose dependent manner
[3]
  reversal of EMT morphology: reversal of the morphology
[4]; HK-2 cells
  basal p38 phosphorylation: inhibited p38 phosphorylation
[5]
  net increase in FSP1 (mesenchymal tissue) at six months versus normal animals: 3 times
  increase in BUN level relative to normal animals: 2%
[5]; [6]
  BUN levels / renal function: reversed renal dysfunction; also recorded: dropped to those of control animals
  damaged tubules / tubular atrophy: inhibited tubular atrophy and interstitial volume increase
  mesangial matrix expansion: inhibited mesangium expansion; also recorded: significantly reduced
  relative interstitial volume: markedly reduced
[5]; THR-123 month 5-6, BMP-7 month 1-6, listed as BMP
  damaged tubules / tubular atrophy: halts the progression
[5]; THR-123 month 5-6, BMP-7 month 1-6, listed as BMP7
  mesangial matrix expansion: unaffected
[5]; mouse, in vivo
  EMT program (FSP1 and E-cadherin double positive tubules): inhibited EMT program
  macrophage infiltration (Mac-1): significantly reduced the infiltration by macrophages
